SMILES strings stand for the structures. Where two headings read alike, the source gives them in different places.

These results are taken from paper PMC10110893, “[…]-derived synthetic cannabinoids inhibit T-type calcium channels with divergent effects on seizures in rodent models of epilepsy” (Frontiers in Physiology, 2023).

In data set [1] the test system is cannabinoid CB1 receptors. Details: method as in Kevin et al., 2022. Conditions: ref Kevin et al., 2022; cited from earlier work.
Data set [2] addresses T1, human Cav3.1 (Homo sapiens, UniProt O43497).
T1 construct: expressed in transfected cells; host or cells: HEK293 FlpIn T-Rex cells (Invitrogen)
Nature of the data set: FLIPR calcium flux assay, Cav3.1. The class given is cell-based. On the procedure: (§1) HEK293 FlpIn T-Rex cells (Invitrogen, CA, United States) stably expressing human Cav3.1, Cav3.2, or Cav3.3 were maintained in Dulbecco’s Modified Eagle Medium (DMEM) supplemented with 10% foetal bovine serum (FBS), 1% penicillin-streptomycin (P/S) at 37°C, and 5% CO2 as previously described ([Bladen et al., 2021]; [Udoh et al., 2022]). Hygromycin (80 μg/mL) and blasticidin (15 μg/mL) were used as selection antibiotics and cells were passaged at 80% confluency. For experiments, cells were resuspended in Leibovitz’s L-15 media (containing 1% FBS, 1% P/S, 15 mM glucose, 2 μg/mL tetracycline), plated in black, clear-bottomed poly-D-lysine-coated 96-well plates (90 μL) (Corning, NY, United States), and incubated overnight in ambient air at 37°C. All compounds tested in cellular assays were prepared as stock solutions in DMSO and final DMSO concentration was 0.1%.
(§2) Intracellular calcium flux was measured using a fluorometric imaging plate-reader (FLIPR) Calcium 5 Assay Kit and FlexStation 3 Microplate Reader (Molecular Devices, San Jose, United States). Calcium 5 dye (90 μL) prepared in low potassium HBSS (Thermo Fisher Scientific) containing (in mM) 145 NaCl, 22 HEPES, 0.338 Na2HPO4, 4.17 NaHCO3, 0.441 KH2PO4, 0.407 MgSO4, 0.493 MgCl2, 1.26 CaCl2, 5.56 glucose, and […] with pH 7.4 was applied to each well and incubated for 1 h at 37°C, ambient air prior to testing.
(§3) Fluorescence readings were taken at 2 s intervals (λ excitation = 485 nm, λ emission = 525 nm). Following 2 min baseline reading, 20 μL of SB2193, SB2193F, or NNC 55-0396 (10 nM—10 μM) was added to cells and read for 5 min, then CaCl2 (10 mM) was added and read for 3 min. Baseline fluorescence averaged over the 20 s interval preceding CaCl2 addition was subtracted and normalized to the vehicle response. Changes in fluorescence were measured in relative fluorescence units (RFU). All compounds were assayed in ≥ five independent experiments (n = 5–8) performed in duplicate. Order of compound addition and location on the plate were varied between replicates. Data was fit to a four-parameter non-linear dose-response curve using GraphPad Prism 8.2.0 software (La Jolla, United States) to determine IC50 values.

In data set [3] the target is T2, human Cav3.2 (Homo sapiens, UniProt O95180).
T2 construct: expressed in transfected cells; host or cells: HEK293 FlpIn T-Rex cells (Invitrogen)
Nature of the data set: FLIPR calcium flux assay, Cav3.2. The class given is cell-based. (A change in cytosolic calcium serves as a functional read-out for many receptors and channels.)
Experimental: Intracellular calcium flux was measured using a fluorometric imaging plate-reader (FLIPR) Calcium 5 Assay Kit and FlexStation 3 Microplate Reader (Molecular Devices, San Jose, United States). […]
Fluorescence readings were taken at 2 s intervals (λ excitation = 485 nm, λ emission = 525 nm). […] Baseline fluorescence averaged over the 20 s interval preceding CaCl2 addition was subtracted and normalized to the vehicle response. Changes in fluorescence were measured in relative fluorescence units (RFU). […]

The target of data set [4] is T3, human Cav3.3 (Homo sapiens, UniProt Q9P0X4).
T3 construct: expressed in transfected cells; host or cells: HEK293 FlpIn T-Rex cells (Invitrogen)
T3 sequence (Q9P0X4 whole entry): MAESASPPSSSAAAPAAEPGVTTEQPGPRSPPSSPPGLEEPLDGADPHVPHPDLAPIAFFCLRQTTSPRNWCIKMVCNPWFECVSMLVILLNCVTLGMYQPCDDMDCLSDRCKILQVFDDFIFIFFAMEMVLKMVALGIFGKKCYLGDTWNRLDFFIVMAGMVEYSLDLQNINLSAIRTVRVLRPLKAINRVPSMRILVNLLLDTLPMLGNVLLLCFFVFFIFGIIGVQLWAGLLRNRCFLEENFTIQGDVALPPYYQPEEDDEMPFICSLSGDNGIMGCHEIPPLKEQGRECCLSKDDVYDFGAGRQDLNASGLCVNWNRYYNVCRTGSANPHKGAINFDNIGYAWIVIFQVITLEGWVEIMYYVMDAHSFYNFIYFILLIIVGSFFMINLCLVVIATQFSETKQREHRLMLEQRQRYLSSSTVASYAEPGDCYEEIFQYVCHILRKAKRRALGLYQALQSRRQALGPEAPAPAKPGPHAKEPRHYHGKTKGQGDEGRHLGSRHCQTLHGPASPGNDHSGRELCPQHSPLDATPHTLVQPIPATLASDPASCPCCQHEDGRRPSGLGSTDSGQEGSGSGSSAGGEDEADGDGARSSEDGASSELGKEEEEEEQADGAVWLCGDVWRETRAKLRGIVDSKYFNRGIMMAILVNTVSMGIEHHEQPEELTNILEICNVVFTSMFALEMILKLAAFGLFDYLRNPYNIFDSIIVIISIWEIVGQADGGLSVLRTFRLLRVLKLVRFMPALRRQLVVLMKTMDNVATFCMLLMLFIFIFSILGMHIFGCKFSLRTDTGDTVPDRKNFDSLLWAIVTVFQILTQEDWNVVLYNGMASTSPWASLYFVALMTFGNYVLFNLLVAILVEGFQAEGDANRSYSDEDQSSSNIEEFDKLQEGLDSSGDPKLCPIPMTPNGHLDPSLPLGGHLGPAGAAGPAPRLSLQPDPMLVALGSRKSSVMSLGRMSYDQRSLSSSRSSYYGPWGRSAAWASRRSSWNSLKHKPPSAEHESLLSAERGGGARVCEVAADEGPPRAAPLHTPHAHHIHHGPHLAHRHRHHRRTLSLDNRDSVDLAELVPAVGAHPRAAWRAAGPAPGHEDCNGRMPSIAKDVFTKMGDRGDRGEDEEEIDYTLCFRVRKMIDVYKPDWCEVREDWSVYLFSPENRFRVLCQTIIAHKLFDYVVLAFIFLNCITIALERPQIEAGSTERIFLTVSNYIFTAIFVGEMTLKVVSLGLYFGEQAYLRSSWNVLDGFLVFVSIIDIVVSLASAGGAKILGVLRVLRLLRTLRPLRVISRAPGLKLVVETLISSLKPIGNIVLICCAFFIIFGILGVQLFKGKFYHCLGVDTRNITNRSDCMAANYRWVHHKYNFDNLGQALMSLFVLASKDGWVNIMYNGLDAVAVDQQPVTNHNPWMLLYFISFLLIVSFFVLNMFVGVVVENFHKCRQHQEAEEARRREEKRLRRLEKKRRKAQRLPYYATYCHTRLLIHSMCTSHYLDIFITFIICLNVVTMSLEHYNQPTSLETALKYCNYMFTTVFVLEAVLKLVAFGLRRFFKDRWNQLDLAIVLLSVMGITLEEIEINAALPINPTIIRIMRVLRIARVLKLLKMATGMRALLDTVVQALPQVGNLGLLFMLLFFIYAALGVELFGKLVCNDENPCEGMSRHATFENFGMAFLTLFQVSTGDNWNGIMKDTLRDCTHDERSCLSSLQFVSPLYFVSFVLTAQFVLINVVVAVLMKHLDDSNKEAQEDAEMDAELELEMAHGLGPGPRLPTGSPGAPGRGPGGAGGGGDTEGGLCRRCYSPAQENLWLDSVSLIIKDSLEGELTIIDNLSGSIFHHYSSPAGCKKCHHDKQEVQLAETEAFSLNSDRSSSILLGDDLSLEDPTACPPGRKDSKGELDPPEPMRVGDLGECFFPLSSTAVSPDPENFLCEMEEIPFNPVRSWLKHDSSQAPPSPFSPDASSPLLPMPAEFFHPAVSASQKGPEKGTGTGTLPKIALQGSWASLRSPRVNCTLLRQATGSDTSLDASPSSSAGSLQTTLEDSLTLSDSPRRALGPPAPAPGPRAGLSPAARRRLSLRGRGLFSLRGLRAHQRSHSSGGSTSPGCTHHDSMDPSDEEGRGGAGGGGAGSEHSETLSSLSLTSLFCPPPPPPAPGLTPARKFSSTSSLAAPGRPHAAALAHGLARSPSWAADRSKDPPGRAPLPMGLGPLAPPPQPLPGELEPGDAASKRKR
Nature of the data set: FLIPR calcium flux assay, Cav3.3. The class given is cell-based. On the procedure: as §1, §2, §3

Data set [5] is described as follows: Pharmacokinetics in mouse plasma and brain after single i.p. injection. It is filed as in vivo. Conditions: both sexes, 10 mg/kg i.p.; for Tmax / half-life / Cmax: wildtype F1, ip; for AUC: wildtype F1, mouse, 10 mg/kg. On the procedure:
SB2193 and SB2193F were prepared in ethanol-Tween 80%–0.9% saline (1:1:18 ratio) and valproic acid in 0.9% saline. All doses were completely soluble in this vehicle except for the 100 mg/kg SB2193 dose, which was a suspension.
Male and female wildtype F1 mice aged 21–28 days postnatal received a single i. p. injection of 10 mg/kg SB2193 or SB2193F. At selected timepoints (15–240 min), mice were anesthetised with isoflurane, blood was collected via cardiac puncture and whole brains were harvested. Brains were snap frozen on dry ice, and blood plasma was isolated via centrifugation (4,000 g for 10 min, 4^○C). Brain and plasma samples were stored at −80°C until assayed.
Plasma samples (50 μL) were spiked with an internal standard (diazepam) and vortexed with 1 M NaOH (50 μL) and methyl tert-butyl ether (1 mL) to achieve protein precipitation. The organic layer was isolated by centrifugation (4,000 g for 3 min) before being frozen for 60 min at −80°C, evaporated to dryness using N2, and reconstituted in 30% acetonitrile and 0.1% formic acid in water for analysis. Brain hemispheres were homogenised in a 10x w/v 1:1 methanol-water solution using a Biospec Tissue-Tearor (Bartlesville, United States) and centrifuged at 20,000 g for 30 min at 4°C. Supernatant (100 μL) was collected and prepared following the same method as plasma.
SB2193 and SB2193F concentrations in brain and plasma samples were assessed by high performance liquid chromatography-tandem mass spectrometry (HPLC-MS/MS) using a Shimadzu Nexera liquid chromatograph coupled with a Shimadzu 8,030 triple quadrupole mass spectrometer (Kyoto, Japan). Samples were run through a Zorbax C18 HPLC Column equipped with a Zorbax Eclipse XDB-C8 guard column (2.1 × 50 mm, 3.5 μm particle size; Agilent, Santa Clara, United States) with an injection volume of 10 μL using a gradient elution. Mobile phases of acetonitrile and 0.1% formic acid in water were delivered at a flow rate of 0.6 mL/min over 4.16 min, with a stepwise adjustment of mobile phase concentration gradient over time to optimise ion separation.
Quantification was achieved by comparing experimental samples to plasma and brain standards prepared with known concentrations of SB2193 or SB2193F. Samples were quantified against a 7-point standard curve (R ^2 > 0.98 for both analytes).
Concentrations of SB2193 or SB2193F in plasma and brain at each timepoint were averaged and concentration-time curves were generated using GraphPad Prism. Pharmacokinetic parameters were calculated using non-compartmental analysis. The linear-log trapezoidal method was used to calculate drug exposure (area under the curve, AUC) using equations previously described ([Hawkins et al., 2017]).

Data set [6] deals with T-type channels. Details: method as in Kevin et al., 2022. Conditions: single 10 μM concentration, FLIPR calcium flux and whole-cell patch clamp, ref Kevin et al., 2022; cited from earlier work.
Data set [7] has as its system 6 Hz-induced seizures in Swiss mice. Nature of the data set: 6 Hz seizure model in mice. It is filed as in vivo, mouse. Conditions: 300 mg/kg i.p., positive control, n = 10. On the procedure:
Swiss outbred mice used in 6 Hz seizure experiments were purchased from Australian Resources Centre (stock ARC(S); Canning Vale, Australia) and single housed for 1 week prior to experimentation to prevent fighting.
6 Hz seizures were induced in Swiss male mice (9–10 weeks old) using an Ugo Basile electroconvulsive therapy unit (Model 57,800; Gemonio, Italy). Mice were pre-treated with vehicle, SB2193 (10 mg/kg, 30 mg/kg, 100 mg/kg) or valproic acid (300 mg/kg) via i.p. injection 15 min before seizure induction based on the time-to-peak brain concentration determined in pharmacokinetic studies. […] A drop of 0.5% tetracaine was applied to both corneas immediately following the i.p. injection to provide local anaesthesia. Immediately prior to the electrical stimulation, saline was applied to each cornea to ensure electrical conductivity. Corneal electroshocks were administered at 44 mA, 6 Hz, 3 s shock duration, with a […] rectangular pulse width. Mice were shocked and scored by an observer blinded to treatment for the presence of twitching of the vibrissae, stun, myoclonus, rearing, forelimb clonus, and/or Straub tail. […] The ED50 for SB2193 was calculated using computer-assisted log-probit linear regression analysis ([Litchfield and Wilcoxon, 1949]). A χ^2 test was performed to assess statistical significance.

Data set [8] has the same test system. Details: method as in Barton et al., 2001. Conditions: 6 Hz model, ref Barton et al., 2001; cited from earlier work.
The mark [9] stands for this setting: FLIPR calcium flux, HEK293 cells, n = 5–8.

T1 sequence (O43497 whole entry): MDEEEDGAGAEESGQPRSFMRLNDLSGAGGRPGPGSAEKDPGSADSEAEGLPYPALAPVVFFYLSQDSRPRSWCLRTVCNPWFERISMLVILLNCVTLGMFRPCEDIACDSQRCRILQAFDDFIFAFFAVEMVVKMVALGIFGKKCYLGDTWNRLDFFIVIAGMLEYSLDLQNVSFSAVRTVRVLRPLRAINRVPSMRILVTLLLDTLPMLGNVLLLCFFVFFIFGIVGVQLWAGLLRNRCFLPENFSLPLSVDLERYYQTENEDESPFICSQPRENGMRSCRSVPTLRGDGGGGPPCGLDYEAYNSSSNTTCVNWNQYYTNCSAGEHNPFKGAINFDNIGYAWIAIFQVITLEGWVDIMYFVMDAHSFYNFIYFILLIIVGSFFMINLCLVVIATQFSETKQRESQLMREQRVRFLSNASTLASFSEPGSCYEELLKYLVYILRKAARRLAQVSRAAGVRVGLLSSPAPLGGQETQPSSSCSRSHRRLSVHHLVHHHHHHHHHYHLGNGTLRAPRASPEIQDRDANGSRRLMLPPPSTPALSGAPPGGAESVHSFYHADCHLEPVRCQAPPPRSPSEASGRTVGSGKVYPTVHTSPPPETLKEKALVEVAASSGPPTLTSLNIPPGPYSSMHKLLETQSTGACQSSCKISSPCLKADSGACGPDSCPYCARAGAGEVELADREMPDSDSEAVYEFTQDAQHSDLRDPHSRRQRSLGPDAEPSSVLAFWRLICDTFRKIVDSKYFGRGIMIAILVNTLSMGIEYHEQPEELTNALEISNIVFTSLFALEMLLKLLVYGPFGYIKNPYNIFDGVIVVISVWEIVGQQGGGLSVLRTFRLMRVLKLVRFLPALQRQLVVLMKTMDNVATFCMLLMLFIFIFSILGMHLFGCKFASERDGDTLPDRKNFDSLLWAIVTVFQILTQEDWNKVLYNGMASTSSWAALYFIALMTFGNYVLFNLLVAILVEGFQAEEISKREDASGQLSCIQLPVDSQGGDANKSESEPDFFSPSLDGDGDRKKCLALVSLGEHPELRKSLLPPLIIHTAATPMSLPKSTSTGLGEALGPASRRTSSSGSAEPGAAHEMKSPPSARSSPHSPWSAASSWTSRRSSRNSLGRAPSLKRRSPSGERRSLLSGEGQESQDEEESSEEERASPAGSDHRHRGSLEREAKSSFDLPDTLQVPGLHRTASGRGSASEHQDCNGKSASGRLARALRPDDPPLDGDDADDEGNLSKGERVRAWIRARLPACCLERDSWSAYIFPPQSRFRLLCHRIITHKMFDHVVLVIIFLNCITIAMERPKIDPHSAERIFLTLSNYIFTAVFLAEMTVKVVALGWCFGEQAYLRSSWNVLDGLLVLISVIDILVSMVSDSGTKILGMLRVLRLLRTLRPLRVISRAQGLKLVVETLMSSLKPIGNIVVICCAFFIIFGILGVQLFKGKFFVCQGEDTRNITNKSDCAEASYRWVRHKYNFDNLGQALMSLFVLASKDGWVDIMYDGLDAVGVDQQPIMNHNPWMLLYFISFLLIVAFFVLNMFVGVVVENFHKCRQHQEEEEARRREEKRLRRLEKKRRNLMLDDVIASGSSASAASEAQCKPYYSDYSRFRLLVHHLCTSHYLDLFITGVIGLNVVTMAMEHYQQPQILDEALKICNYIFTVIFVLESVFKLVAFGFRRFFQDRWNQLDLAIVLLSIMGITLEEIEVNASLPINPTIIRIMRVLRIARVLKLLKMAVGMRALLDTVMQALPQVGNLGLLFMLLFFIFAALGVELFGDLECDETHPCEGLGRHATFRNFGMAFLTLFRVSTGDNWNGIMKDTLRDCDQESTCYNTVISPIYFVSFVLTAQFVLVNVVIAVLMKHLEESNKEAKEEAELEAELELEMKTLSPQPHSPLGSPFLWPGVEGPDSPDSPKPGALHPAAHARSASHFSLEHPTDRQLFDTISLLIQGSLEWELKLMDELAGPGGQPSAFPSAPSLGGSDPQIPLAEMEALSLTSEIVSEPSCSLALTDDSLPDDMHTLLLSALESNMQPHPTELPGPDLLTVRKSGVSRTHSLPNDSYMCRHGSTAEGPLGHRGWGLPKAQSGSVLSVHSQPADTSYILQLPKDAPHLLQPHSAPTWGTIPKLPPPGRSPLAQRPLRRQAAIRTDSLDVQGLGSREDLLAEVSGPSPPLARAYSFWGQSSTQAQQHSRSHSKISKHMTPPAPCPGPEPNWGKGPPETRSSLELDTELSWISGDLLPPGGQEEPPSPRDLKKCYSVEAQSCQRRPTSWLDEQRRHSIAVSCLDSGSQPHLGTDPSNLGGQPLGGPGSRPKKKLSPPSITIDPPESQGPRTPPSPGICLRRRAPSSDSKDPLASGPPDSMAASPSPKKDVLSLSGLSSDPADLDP

`CCCCCn1cc(C(=O)N2CCN(C)CC2)c2ccccc21` [reference compound]: the “activity at cannabinoid CB1 receptors” value in data set [1] is “minimal activity”.

Usually IC50 stands for the concentration that inhibits the measured activity by half. A word on the Tmax: it is the time at which the peak concentration occurs. Broadly, the half-life is how long it takes for the measured level to halve. A high value points to slow loss. The AUC is concentration integrated over time. Low values mean low exposure, high ones high exposure. Consider `CC(C)(C)OC(=O)N1CCN(C(=O)c2cn(CCCCCF)c3ccccc23)CC1` [SB2193F], for which the IC50 was 2300 nM in data set [2], 3160 nM in data set [3] and 8600 nM in data set [4]. Further, the Kp in data set [5] (wildtype F1, brain/plasma, ip, mouse, read-out: brain-plasma ratio) came to 0.48. Further, the Tmax in data set [5] (mouse brain) and in data set [5] (mouse plasma) was at most 15 min each time. Also, the half-life in data set [5] (mouse brain) worked out at 14 min; in data set [5] (mouse plasma) it was 23 min. Besides, the Cmax in data set [5] (mouse brain, read-out: Cmax) came out at 2300 ± 300 nM; in data set [5] (mouse brain, read-out: Cmax (μg/mL)), 0.97 ± 0.1 µg/mL; in data set [5] (mouse plasma, read-out: Cmax) it was 3100 ± 700 nM; in data set [5] (mouse plasma, read-out: Cmax (μg/mL)), 1.3 ± 0.3 µg/mL. In addition, the AUC was 350 ng·h/mL in data set [5] (brain, ip, mouse brain, brain concentration converted assuming density of 1 g/mL) and 733 ng·h/mL in data set [5] (plasma, ip, mouse plasma). The “inhibition of T-type channels” value in data set [6] is given as “strongly inhibit”. Besides, the “activity at cannabinoid CB1 receptors” value in data set [1] is given as “minimal activity”.

In the case of `CCCC(CCC)C(=O)O` [valproic acid, reference compound], the “protection from seizures compared to vehicle” value in data set [7] was “significant protection”.

What is called ED50 is the midpoint of the dose-response relation. Consider `CCC1(C)CC(=O)NC1=O` (centres unmarked) [ethosuximide], for which the ED50 in data set [8] is over 600 mg/kg.

`CC(C)[C@H]1c2ccc(F)cc2CC[C@@]1(CCN(C)CCCc1nc2ccccc2[nH]1)OC(=O)C1CC1` [NNC 55-036, reference compound]: the “Cav3.1 pIC50” value in data set [2] (setting [9]) turned out to be 5.9 ± 0.06. Further, the IC50 is 1300 nM in data set [2] (FLIPR calcium flux, HEK293 cells, n = 5–8, read-out: Cav3.1 IC50) and 1200 nM in data set [4] (FLIPR calcium flux, HEK293 cells, n = 5–8, read-out: Cav3.3 IC50). Moreover, the “Cav3.3 pIC50” value in data set [4] (setting [9]) stood at 5.9 ± 0.06.
